Test results as given in US12590075B2, “Refining method” (NGK Insulators, Ltd., priority 2020, dated 2026).

Assay: Dissolution time / dissolution rate of the raw material in a solvent (stereoscopic microscope, heating stage)
Assay type: physicochemical
Conditions: heating stage 50±5° C., order of solvents; for Dissolution rate of the raw material (Arranged in order from the fastest to the slowest): 25 mg compound in 2 mL solvent
Experimental: The dissolution time of the raw material of febuxostat in a solvent was examined as described below. […] First, a heating stage ([…], Mettler) was installed in a stereoscopic microscope (SZX16, Olympus Corporation), and the surface temperature of the heating stage was maintained at 50±5° C. 25 mg of febuxostat (product code […], Tokyo Chemical Industry Co., Ltd.) was weighed into a flat laboratory dish (φ32 mm×16 mm), and 2 mL of the solvent was weighed and added to the laboratory dish, which was then immediately covered with a glass lid. The laboratory dish was placed on the heating stage. […] As a result, the dissolution time was ethanol<2-propanol<acetonitrile (in other words, the dissolution rate was ethanol>2-propanol>acetonitrile). […] The dissolution times of the raw materials of loxoprofen and diclofenac in the solvents were also examined in the same manner as febuxostat.

Dissolution rate of the raw material (Arranged in order from the fastest to the slowest)	Dissolution rate of the raw material (Arranged in order from the fastest to the slowest) (listed as febuxostat)	dissolution time (25 mg in 2 mL solvent, time until no undissolved material observed)	SMILES
Ethanol, 2-propanol, Acetonitrile	ethanol>2-propanol>acetonitrile	ethanol<2-propanol<acetonitrile	Cc1nc(-c2ccc(OCC(C)C)c(C#N)c2)sc1C(=O)O [Febuxostat, febuxostat]
Ethanol, Ethanol/IPA^※1			O=C(O)Cc1ccccc1Nc1c(Cl)cccc1Cl [Diclofenac, diclofenac]
Ethanol, 2-propanol			CC(C(=O)O)c1ccc(CC2CCCC2=O)cc1 (centres unmarked) [Loxoprofen, loxoprofen]
